Laboratory results taken from PubChem BioAssay (NCI).
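In this assay, cells in 96-well plates receive the compound at five concentrations for 48 hours. Endpoints are linearly interpolated between the surrounding concentrations. TGI: concentration producing complete growth inhibition.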

Assays:
Assay in all cases: NCI anticancer screen, dose series, 48 h
TK-10 renal = system: TK-10 renal
XF 498 CNS = system: XF 498 CNS
ACHN renal = system: ACHN renal
HCC-2998 colon = system: HCC-2998 colon
SF-295 CNS = system: SF-295 CNS
CCRF-CEM leukemia = system: CCRF-CEM leukemia
HT29 colon = system: HT29 colon
NCI-H460 lung = system: NCI-H460 lung
IGROV1 ovarian = system: IGROV1 ovarian
SK-MEL-5 melanoma = system: SK-MEL-5 melanoma
SF-268 CNS = system: SF-268 CNS
HOP-18 NSCLC = system: HOP-18 NSCLC
SF-539 CNS = system: SF-539 CNS
A498 renal = system: A498 renal
MALME-3M melanoma = system: MALME-3M melanoma
DMS 114 small cell lung = system: DMS 114 small cell lung
NCI-H522 lung = system: NCI-H522 lung
KM20L2 colon = system: KM20L2 colon
K-562 leukemia = system: K-562 leukemia
LOX IMVI melanoma = system: LOX IMVI melanoma
KM12 colon = system: KM12 colon
LXFL 529 NSCLC = system: LXFL 529 NSCLC
HOP-92 NSCLC = system: HOP-92 NSCLC
SR leukemia = system: SR leukemia
RXF 393 renal = system: RXF 393 renal
HCT-15 colon = system: HCT-15 colon
OVCAR-8 ovarian = system: OVCAR-8 ovarian
NCI-H23 lung = system: NCI-H23 lung
SK-MEL-28 melanoma = system: SK-MEL-28 melanoma
RXF-631 renal = system: RXF-631 renal
A549 NSCLC = system: A549 NSCLC
HL-60(TB) leukemia = system: HL-60(TB) leukemia
SNB-75 CNS = system: SNB-75 CNS
NCI-H226 lung = system: NCI-H226 lung
CAKI-1 renal = system: CAKI-1 renal
SW-620 colon = system: SW-620 colon
UACC-257 melanoma = system: UACC-257 melanoma
HOP-62 NSCLC = system: HOP-62 NSCLC
M14 melanoma = system: M14 melanoma
786-0 renal = system: 786-0 renal
MOLT-4 leukemia = system: MOLT-4 leukemia
EKVX NSCLC = system: EKVX NSCLC
SN12C renal = system: SN12C renal
HCT-116 colon = system: HCT-116 colon
OVCAR-3 ovarian = system: OVCAR-3 ovarian
U251 CNS = system: U251 CNS
SNB-19 CNS = system: SNB-19 CNS
OVCAR-5 ovarian = system: OVCAR-5 ovarian
OVCAR-4 ovarian = system: OVCAR-4 ovarian
DLD-1 colon = system: DLD-1 colon
COLO 205 colon = system: COLO 205 colon
SNB-78 CNS = system: SNB-78 CNS
UACC-62 melanoma = system: UACC-62 melanoma
UO-31 renal = system: UO-31 renal
M19-MEL melanoma = system: M19-MEL melanoma
DMS 273 small cell lung = system: DMS 273 small cell lung
RPMI-8226 leukemia = system: RPMI-8226 leukemia
SK-OV-3 ovarian = system: SK-OV-3 ovarian

In the case of `C=CSCCC(N)C(=O)O` (stereo not drawn), the TGI (TK-10 renal) is reported as > 100 µM, the TGI (XF 498 CNS) is reported as > 100 µM and the TGI (ACHN renal) is reported as > 100 µM. The TGI (HCC-2998 colon) was > 100 µM, the TGI (SF-295 CNS) was > 100 µM and the TGI (CCRF-CEM leukemia) was > 100 µM. For the same molecule, the TGI (HT29 colon) was > 100 µM, the TGI (NCI-H460 lung) was > 100 µM and the TGI (IGROV1 ovarian) was > 100 µM. The TGI (SK-MEL-5 melanoma) was > 100 µM, the TGI (SF-268 CNS) was > 100 µM and the TGI (HOP-18 NSCLC) was > 100 µM. The TGI (SF-539 CNS) was > 100 µM, the TGI (A498 renal) was > 100 µM and the TGI (MALME-3M melanoma) was > 100 µM. The TGI (DMS 114 small cell lung) was > 100 µM, the TGI (NCI-H522 lung) was > 100 µM and the TGI (KM20L2 colon) was > 100 µM. For the same molecule, the TGI (K-562 leukemia) was > 100 µM, the TGI (LOX IMVI melanoma) was > 100 µM and the TGI (KM12 colon) was > 100 µM. For the same molecule, the TGI (LXFL 529 NSCLC) was > 100 µM, the TGI (HOP-92 NSCLC) was > 100 µM and the TGI (SR leukemia) was > 100 µM. For the same molecule, the TGI (RXF 393 renal) was > 100 µM, the TGI (HCT-15 colon) was > 100 µM and the TGI (OVCAR-8 ovarian) was > 100 µM. For the same molecule, the TGI (NCI-H23 lung) was > 100 µM, the TGI (SK-MEL-28 melanoma) was > 100 µM and the TGI (RXF-631 renal) was > 100 µM. For the same molecule, the TGI (A549 NSCLC) was > 100 µM, the TGI (HL-60(TB) leukemia) was > 100 µM and the TGI (SNB-75 CNS) was > 100 µM. The TGI (NCI-H226 lung) was > 100 µM, the TGI (CAKI-1 renal) was > 100 µM and the TGI (SW-620 colon) was > 100 µM. For the same molecule, the TGI (UACC-257 melanoma) was > 100 µM, the TGI (HOP-62 NSCLC) was > 100 µM and the TGI (M14 melanoma) was > 100 µM. For the same molecule, the TGI (786-0 renal) was > 100 µM, the TGI (MOLT-4 leukemia) was > 100 µM and the TGI (EKVX NSCLC) was > 100 µM. For the same molecule, the TGI (SN12C renal) was > 100 µM, the TGI (HCT-116 colon) was > 100 µM and the TGI (OVCAR-3 ovarian) was > 100 µM. For the same molecule, the TGI (U251 CNS) was > 100 µM, the TGI (SNB-19 CNS) was > 100 µM and the TGI (OVCAR-5 ovarian) was > 100 µM. The TGI (OVCAR-4 ovarian) was > 100 µM, the TGI (DLD-1 colon) was > 100 µM and the TGI (COLO 205 colon) was > 100 µM. The TGI (SNB-78 CNS) was > 100 µM, the TGI (UACC-62 melanoma) was > 100 µM and the TGI (UO-31 renal) was > 100 µM. For the same molecule, the TGI (M19-MEL melanoma) was > 100 µM and the TGI (DMS 273 small cell lung) was > 100 µM.
For `NCCSSCc1ccccc1CSSCCN`, the TGI (TK-10 renal) was > 100 µM, the TGI (XF 498 CNS) was > 100 µM and the TGI (ACHN renal) was > 100 µM. For the same molecule, the TGI (HCC-2998 colon) was > 100 µM, the TGI (SF-295 CNS) was > 100 µM and the TGI (HT29 colon) was > 100 µM. For the same molecule, the TGI (NCI-H460 lung) was > 100 µM, the TGI (IGROV1 ovarian) was > 100 µM and the TGI (RPMI-8226 leukemia) was > 100 µM. The TGI (SK-MEL-5 melanoma) was > 100 µM, the TGI (SF-268 CNS) was > 100 µM and the TGI (HOP-18 NSCLC) was > 100 µM. For the same molecule, the TGI (SF-539 CNS) was > 100 µM, the TGI (A498 renal) was > 100 µM and the TGI (MALME-3M melanoma) was > 100 µM. For the same molecule, the TGI (DMS 114 small cell lung) was > 100 µM, the TGI (NCI-H522 lung) was 27.8 µM and the TGI (KM20L2 colon) was > 100 µM. The TGI (K-562 leukemia) was 43.4 µM, the TGI (LOX IMVI melanoma) was 41.8 µM and the TGI (KM12 colon) was > 100 µM. The TGI (LXFL 529 NSCLC) was > 100 µM, the TGI (HOP-92 NSCLC) was > 100 µM and the TGI (SR leukemia) was > 100 µM. The TGI (RXF 393 renal) was > 100 µM, the TGI (HCT-15 colon) was > 100 µM and the TGI (OVCAR-8 ovarian) was > 100 µM. The TGI (NCI-H23 lung) was > 100 µM, the TGI (SK-MEL-28 melanoma) was > 100 µM and the TGI (RXF-631 renal) was > 100 µM. The TGI (A549 NSCLC) was > 100 µM, the TGI (HL-60(TB) leukemia) was 29.6 µM and the TGI (SNB-75 CNS) was > 100 µM. For the same molecule, the TGI (NCI-H226 lung) was > 100 µM, the TGI (CAKI-1 renal) was > 100 µM and the TGI (SW-620 colon) was 45.8 µM. For the same molecule, the TGI (UACC-257 melanoma) was > 100 µM, the TGI (HOP-62 NSCLC) was > 100 µM and the TGI (M14 melanoma) was > 100 µM. The TGI (786-0 renal) was > 100 µM, the TGI (MOLT-4 leukemia) was > 100 µM and the TGI (EKVX NSCLC) was > 100 µM. For the same molecule, the TGI (SN12C renal) was > 100 µM, the TGI (HCT-116 colon) was > 100 µM and the TGI (OVCAR-3 ovarian) was > 100 µM. For the same molecule, the TGI (U251 CNS) was > 100 µM, the TGI (SNB-19 CNS) was > 100 µM and the TGI (OVCAR-5 ovarian) was > 100 µM. For the same molecule, the TGI (OVCAR-4 ovarian) was > 100 µM, the TGI (DLD-1 colon) was > 100 µM and the TGI (COLO 205 colon) was > 100 µM. The TGI (SNB-78 CNS) was > 100 µM, the TGI (UACC-62 melanoma) was > 100 µM and the TGI (SK-OV-3 ovarian) was > 100 µM. For the same molecule, the TGI (UO-31 renal) was > 100 µM, the TGI (M19-MEL melanoma) was > 100 µM and the TGI (DMS 273 small cell lung) was > 100 µM.
